Bounds are passed on as bounds.

Data set [1] in a line: Selectivity index, ratio of IC50 for human NFF cells to IC50 for Plasmodium falciparum. Format: toxicity, cell-based. Conditions: NFF cells (versus Plasmodium falciparum), read-out: Ratio IC50.
The test system of data set [2] is NFF. Nature of the data set: Cytotoxicity against human NFF cells after 3 days by SRB assay. To be noted: 72 h. It counts as cell-based.
For data set [3], the system named is Plasmodium falciparum. Nature of the data set: Antimalarial activity against ring stage of chloroquine-sensitive Plasmodium falciparum 3D7 infected in erythrocytes assessed as [3H]-hypoxanthine incorporation after 48 hrs by liquid scintillation counting analysis. It counts as functional, organism-based.
Data set [4] relates to Plasmodium falciparum. Nature of the data set: Antimalarial activity against ring stage of chloroquine-resistant Plasmodium falciparum Dd2 infected in erythrocytes assessed as [3H]-hypoxanthine incorporation after 48 hrs by liquid scintillation counting analysis. It counts as functional, organism-based.

For the molecule `CC(=O)OC[C@H]1O[C@@H](SCc2nnn(-c3ccc(S(N)(=O)=O)cc3)c2I)[C@H](OC(C)=O)[C@@H](OC(C)=O)[C@@H]1OC(C)=O`, the selectivity ratio in data set [1] is at least 40. Besides, the IC50 in data set [2] worked out at 51.1 µM; in data set [3] it was 0.9 µM; in data set [4], 1.3 µM.
For `CC(=O)OC[C@H]1O[C@@H](SCc2nnn(-c3ccc(S(N)(=O)=O)cc3)c2I)[C@H](OC(C)=O)[C@@H](OC(C)=O)[C@H]1OC(C)=O`, the IC50 is above 100 µM in data set [2], 1.4 µM in data set [3] and 4.1 µM in data set [4].
Regarding `CC(=O)OC[C@H]1O[C@@H](S(=O)(=O)Cc2nnn(-c3ccc(S(N)(=O)=O)cc3)c2I)[C@H](OC(C)=O)[C@@H](OC(C)=O)[C@@H]1OC(C)=O`, the IC50 in data set [2] is above 100 µM; in data set [3], 5.3 µM; in data set [4], 7.8 µM.
Consider `CC(=O)OC[C@H]1O[C@@H](S(=O)(=O)Cc2nnn(-c3ccc(S(N)(=O)=O)cc3)c2I)[C@H](OC(C)=O)[C@@H](OC(C)=O)[C@@H]1O[C@H]1O[C@H](COC(C)=O)[C@@H](OC(C)=O)[C@H](OC(C)=O)[C@H]1OC(C)=O`, for which the values for the IC50 in data set [2], in data set [3] and in data set [4] were above 100 µM, 2.3 µM and 2.4 µM, respectively.
Regarding `CC(=O)OC[C@H]1O[C@@H](S(=O)(=O)Cc2cn(-c3ccc(S(N)(=O)=O)cc3)nn2)[C@H](OC(C)=O)[C@@H](OC(C)=O)[C@@H]1O[C@H]1O[C@H](COC(C)=O)[C@@H](OC(C)=O)[C@H](OC(C)=O)[C@H]1OC(C)=O`, the IC50 in data set [3] was determined as 20.7 µM; in data set [4] it was 14.7 µM.
`NS(=O)(=O)c1ccc(-n2nnc(CS[C@@H]3O[C@H](CO)[C@@H](O)[C@H](O)[C@H]3O)c2I)cc1`: in data set [1], the selectivity ratio is at least 40. The IC50 is above 100 µM in data set [2], 1 µM in data set [3] and 1.9 µM in data set [4].
Consider `NS(=O)(=O)c1ccc(-n2nnc(CS(=O)(=O)[C@@H]3O[C@H](CO)[C@@H](O)[C@H](O)[C@H]3O)c2I)cc1`, for which the IC50 in data set [3] was 28.6 µM; in data set [4], above 50 µM.
As to `CC(=O)OC[C@H]1O[C@@H](S(=O)(=O)Cc2nnn(-c3ccccc3)c2I)[C@H](OC(C)=O)[C@@H](OC(C)=O)[C@@H]1OC(C)=O`, the IC50 in data set [3] was 4.7 µM; in data set [4], 3.4 µM.
For `CC(=O)OC[C@H]1O[C@@H](OCc2cn(-c3ccccc3)nn2)[C@H](OC(C)=O)[C@@H](OC(C)=O)[C@@H]1OC(C)=O`, in that order: above 50 µM and above 50 µM.
On to `O=S(=O)(Cc1nnn(-c2ccccc2)c1I)[C@@H]1O[C@H](CO)[C@@H](O)[C@H](O)[C@H]1O`, for which the values for the IC50 in data set [3] and in data set [4] were 3.8 µM and 3.4 µM, respectively.
Turning to `CC(=O)OC[C@H]1O[C@@H](SCc2cn(-c3ccccc3)nn2)[C@H](OC(C)=O)[C@@H](OC(C)=O)[C@@H]1OC(C)=O`, the IC50 in data set [3] and in data set [4] was above 50 µM throughout.
For `OC[C@H]1O[C@@H](SCc2cn(-c3ccccc3)nn2)[C@H](O)[C@@H](O)[C@@H]1O`, the IC50 in data set [3] and in data set [4] was above 50 µM in each case.
For the molecule `CC(=O)OC[C@H]1O[C@@H](S(=O)(=O)Cc2cn(-c3ccccc3)nn2)[C@H](OC(C)=O)[C@@H](OC(C)=O)[C@@H]1OC(C)=O`, the IC50 in data set [3] and in data set [4] was above 50 µM each time.
As to `O=S(=O)(Cc1cn(-c2ccccc2)nn1)[C@@H]1O[C@H](CO)[C@@H](O)[C@H](O)[C@H]1O`, the IC50 in data set [3] and in data set [4] was above 50 µM in each case.
With `COC(=O)[C@H]1O[C@@H](SCc2nnn(-c3ccc(S(N)(=O)=O)cc3)c2I)[C@H](OC(C)=O)[C@@H](OC(C)=O)[C@@H]1OC(C)=O`, the IC50 in data set [2] is above 100 µM; in data set [3], 2.1 µM; in data set [4], 6 µM.
Take `CC(=O)OC[C@H]1O[C@@H](OCc2nnn(-c3ccc(S(N)(=O)=O)cc3)c2I)[C@H](OC(C)=O)[C@@H](OC(C)=O)[C@@H]1OC(C)=O`: the IC50 in data set [2] was above 100 µM; in data set [3], 2.8 µM; in data set [4], 2.6 µM.
Regarding `CC(=O)OC[C@H]1O[C@@H](SCc2nnn(-c3ccccc3)c2I)[C@H](OC(C)=O)[C@@H](OC(C)=O)[C@@H]1OC(C)=O`, the values for the IC50 in data set [3] and in data set [4] were 4.6 µM and 4.8 µM, respectively.
For `OC[C@H]1O[C@@H](SCc2nnn(-c3ccccc3)c2I)[C@H](O)[C@@H](O)[C@@H]1O`, in that order: 4.9 µM and 4.4 µM.
Regarding `CC(=O)OC[C@H]1O[C@@H](OCc2nnn(-c3ccccc3)c2I)[C@H](OC(C)=O)[C@@H](OC(C)=O)[C@@H]1OC(C)=O`, the IC50 worked out at 10.6 µM in data set [3] and 9.4 µM in data set [4].
Turning to `CC(=O)OC[C@H]1O[C@@H](OCc2cn(-c3ccc(S(N)(=O)=O)cc3)nn2)[C@H](OC(C)=O)[C@@H](OC(C)=O)[C@@H]1OC(C)=O`, the IC50 amounted to 9.7 µM in data set [3] and 11.7 µM in data set [4].
In the case of `CC(=O)OC[C@H]1O[C@@H](S(=O)(=O)Cc2cn(-c3ccc(S(N)(=O)=O)cc3)nn2)[C@H](OC(C)=O)[C@@H](OC(C)=O)[C@@H]1OC(C)=O`, the IC50 in data set [3] and in data set [4] was above 50 µM throughout.
As to `NS(=O)(=O)c1ccc(-n2cc(CS[C@@H]3O[C@H](CO)[C@@H](O)[C@H](O)[C@H]3O)nn2)cc1`, the IC50 in data set [3] and in data set [4] was above 50 µM each time.
In the case of `NS(=O)(=O)c1ccc(-n2cc(CS(=O)(=O)[C@@H]3O[C@H](CO)[C@@H](O)[C@H](O)[C@H]3O)nn2)cc1`, the IC50 in data set [3] and in data set [4] was above 50 µM throughout.
Take `CC(=O)OC[C@H]1O[C@@H](SCc2cn(-c3ccc(S(N)(=O)=O)cc3)nn2)[C@H](OC(C)=O)[C@@H](OC(C)=O)[C@@H]1OC(C)=O`: the values for the IC50 in data set [3] and in data set [4] were 31 µM and above 25 µM, respectively.
As to `CCN(CC)CCCC(C)Nc1ccnc2cc(Cl)ccc12` (stereo not drawn) [CHLOROQUINE], the IC50 in data set [2] is above 1000 µM.

In general, IC50 refers to the concentration that gives 50% inhibition.

These data come from ChEMBL document CHEMBL2440073, “Antimalarial activity of compounds comprising a primary benzene sulfonamide fragment” (Bioorg Med Chem Lett, 2013).
